Source: patent US4424351A, “Pyrido[3,4-e]-as-triazines” (Egyt Gyogyszervegyeszeti Gyar, priority 1979, dated 1984)

Legend:
mice [1] = assay: potentiation of hexobarbital-induced narcosis (method of Kaergaard et al.); format: in vivo; conditions: for Therapeutical index (LD50/ED50), potentiation of hexobarbital-induced narcosis: LD50/ED50, mice p.o.; for ED50: Mus musculus, mice, oral, then 40 mg/kg hexobarbital i.v., 150% prolongation of sleeping time = positive, read-out: ED50 p.o. (potentiation of hexobarbital-induced narcosis)
Protocol: The hexobarbital-induced narcosis potentiating effect of the new compounds was tested by the method of Kaergaard et al. (Arch. Int. Pharmacodyn. 2, 170 /1967/) on groups consisting of 6 mice each. The animals belonging to the control group received an oral dosage of 20 ml/kg of 0.9% aqueous sodium chloride solution, whereas the other animals were treated orally with the compound to be tested. Thereafter 40 mg/kg of hexobarbital (5-/1-cyclohexenyl/-[…]) were administered intravenously into the animals. A 150% prolongation of the sleeping time, related to the average value observed in the controls, was regarded as positive response. The number of animals giving positive response was compared to the total number of the animals treated.

in vivo = conditions: mouse, mice, oral
Protocol: The acute toxicity of the new compounds having the general formula (I) was tested on mice. The substances to be tested were administered orally to the animals.

white mice = assay: motility inhibiting effect (orientation reflex, eight-channel Dews apparatus); format: in vivo; conditions: for Therapeutical index (LD50/ED50), motility inhibiting effect: LD50/ED50, Dews apparatus, mice p.o.; for ED50: Mus musculus, 0.5 h, white mice, oral, pre-treatment of 30 minutes, light beam interceptions, read-out: ED50 p.o. (motility inhibiting effect)
Protocol: The effect of the new compounds exerted on the orientation reflex was tested on white mice in an eight-channel Dews apparatus, according to the method of Borsy et al. (Arch. Int. Pharmacodyn. 124, 1-2 /1960/). The number of light beam interceptions, caused by the movement of the animals, was recorded after a pre-treatment of 30 minutes. The test groups consisted of 3 mice. The ED50 values obtained in the investigation of motility-inhibiting effect, furthermore the therapeutical indices (LD50 /ED50) calculated therefrom are listed in Table 4.

rats = assay: antiphlogistic effect, carrageenine-induced paw swelling (method of Winter); format: in vivo; conditions: Rattus norvegicus, oral, paw volume before and 3 h after 0.1 ml 1% carrageenine, read-out: Dosage exerting 30% inhibition (antiphlogistic effect)
Protocol: The antiphlogistic effect of the new compounds according to the invention was investigated on rats by the method of Winter (J. Pharm. Exp. […] The volume of the treated paw was measured by […] before and 3 hours after challenge. The compounds to be tested were administered orally into the animals.

[2] = system: animals treated with tetrabenazine; assay: tetrabenazine-antagonizing effect (closed palpebral fissures); format: in vivo; conditions: for Therapeutical index (LD50/ED50), tetrabenazine-antagonizing effect: LD50/ED50, p.o.; for ED50: Mus musculus, oral, 30 min before 50 mg/kg tetrabenazine p.o., readings at 30, 60, 90 and 120 min summed
Protocol: The tetrabenzine-antagonizing effect of the new compounds was tested on groups consisting of 10 mice each. The animals belonging to the control group received an oral dosage of 20 ml/kg of 0.9% aqueous sodium chloride solution, whereas the other animals were treated orally with the compound to be tested. 30 minutes after the introduction of the active agent or the vehicle 50 mg/kg of tetrabenazine (3-isobutyl-9,10-[…]-1,2,3,4,6,7-hexahydrobenzo[a]quinolisine-2-one) were administered orally into the animals, and the animals with closed palpebral fissures were counted 30, 60, 90 and 120 minutes after the administration of tetrabenazine. The data obtained in the individual measuring times were added, and the percentage inhibition related to the controls was calculated.

mice [3] = assay: analgesic effect, writhing test (acetic acid i.p.); format: in vivo; conditions: for Therapeutical index (LD50/ED50), analgesic effect: LD50/ED50, writhing test, mice p.o.; for ED50: Mus musculus, mice, oral 1 h before 0.4 ml of 0.5% acetic acid i.p., dosage decreasing number of writhings by 50%, read-out: ED50 p.o. (analgesic effect)
Protocol: The analgesic effect of the new compounds according to the invention was investigated on mice by the so-called writhing test. […] The animals were treated orally with the compound to be tested one hour before the introduction of acetic acid. The animals belonging to the control group received vehicle only.

SMILES	Therapeutical index (LD50/ED50), potentiation of hexobarbital-induced narcosis (mice [1])	ED50 (mice [1]) [mg/kg]	LD50 (in vivo) [mg/kg]	Therapeutical index (LD50/ED50), motility inhibiting effect (white mice)	ED50 (white mice) [mg/kg]	ED30 (rats) [mg/kg]	Therapeutical index (LD50/ED50), tetrabenazine-antagonizing effect [2]	ED50 [2] [mg/kg]	Therapeutical index (LD50/ED50), analgesic effect (mice [3])	ED50 (mice [3]) [mg/kg]
CCC(=O)N1N=C(c2ccccc2)Nc2cnccc21.Cl [12 (HCl), 3-phenyl-1-propionyl-1,4-dihydro-pyrido[3,4-e]-as-triazine hydrochloride]	200	10	2000	40	50	30	50	40		
CN(C)CCC=C1c2ccccc2CCc2ccccc21 [Amitryptiline, reference compound]								12		
CC(=O)N1C=NN(C(C)=O)c2ccncc21 [Example 1, 1,4-diacetyl-1,4-dihydropyrido[3,4-e]-as-triazine]	11.4	25	360			25				
CCC(=O)N1N=C(C)Nc2cnccc21 [Example 11, 3-Methyl-1-propionyl-1,4-dihydropyrido[3,4-e]-as-triazine]	25	20	500			30				
CCC(=O)N1N=C(c2ccccc2)Nc2cnccc21 [Example 12, 3-phenyl-1-propionyl-1,4-dihydropyrido[3,4-e]-as-triazine]	32.3	62	> 2000	>57.4	35	26			above 40	50
CC(=O)N1N=C(c2ccccc2)Nc2cnccc21 [Example 17, 3-phenyl-1-acetyl-1,4-dihydropyrido[3,4-e]-as-triazine]	40	35	1400	46.67	30		25	56	60.87	23
CCC(=O)N1C=NN(C(=O)CC)c2ccncc21 [Example 18, 1,4-dipropioyl-1,4-dihydropyrido[3,4-e]-as-triazine]			450			12			75	6
CCCC(=O)N1N=C(c2ccccc2)Nc2cnccc21 [Example 19, 3-phenyl-1-butyryl-1,4-dihydropyrido[3,4-e]-as-triazine]	10	150	1500	16.67	90	13	75	20	20	75
CCCC(C)(COC(N)=O)COC(N)=O [Meprobamate, reference compound]	4.1	270		14.1	270					
CCCCC1C(=O)N(c2ccccc2)N(c2ccccc2)C1=O [Phenylbutazone, reference compound]						90				65
